What is called EC50 is the midpoint of the concentration-response curve.

A short description of this assay: Concentration required to achieve 50% protection of MT-4 cell from the HIV-1 induced cytopathogenicity was determined by the MTT method. For orientation: Cytopathic effects are the visible damage that an infection or toxin causes in cultured cells.
Take `CC(COc1ccccc1)OC(=S)N(C(=O)c1ccco1)c1ccccc1` (centres undefined) [(Furan-2-carbonyl)-phenyl-thiocarbamic acid O-(1-methyl-2-phenoxy-ethyl) ester]: the EC50 was determined as 1.3 µM. On to `O=C(c1ccco1)N(C(=S)OCCOc1ccccc1)c1ccccc1` [(Furan-2-carbonyl)-phenyl-thiocarbamic acid O-(2-phenoxy-ethyl) ester], for which a half-maximal response (EC50) required 8.4 µM. Under `O=C(c1ccco1)N(C(=S)OCCc1ccccc1)c1ccccc1` [(Furan-2-carbonyl)-phenyl-thiocarbamic acid O-phenethyl ester] stands 4.3 µM; under `O=C1c2ccccc2C(=O)N1CCOC(=S)N(C(=O)c1cccs1)c1cccc(C(F)(F)F)c1` [(Thiophene-2-carbonyl)-(3-trifluoromethyl-phenyl)-thiocarbamic acid O-[2-(1,3-dioxo-1,3-dihydro-isoindol-2-yl)-ethyl] ester], 11 µM. Under `Cc1cccc(N(C(=O)c2cccs2)C(=S)OCCN2C(=O)c3ccccc3C2=O)c1` [(Thiophene-2-carbonyl)-m-tolyl-thiocarbamic acid O-[2-(1,3-dioxo-1,3-dihydro-isoindol-2-yl)-ethyl] ester] stands 10 µM; under `Cc1ccccc1N(C(=O)c1cccs1)C(=S)OCCN1C(=O)c2ccccc2C1=O` [(Thiophene-2-carbonyl)-o-tolyl-thiocarbamic acid O-[2-(1,3-dioxo-1,3-dihydro-isoindol-2-yl)-ethyl] ester], 11 µM. Under `Cc1ccc(N(C(=O)c2cccs2)C(=S)OCCN2C(=O)c3ccccc3C2=O)cc1` [(Thiophene-2-carbonyl)-p-tolyl-thiocarbamic acid O-[2-(1,3-dioxo-1,3-dihydro-isoindol-2-yl)-ethyl] ester] stands 0.4 µM; under `CC(=O)Oc1ccccc1C(=O)N(C(=S)OCCOc1ccccc1)c1ccccc1` [Acetic acid 2-(2-phenoxy-ethoxythiocarbonyl)-phenyl-aminocarbonyl)-phenyl ester], 9.5 µM. For `O=C1c2ccccc2C(=O)N1CCOC(=S)N(C(=O)c1ccccc1)c1ccc(Br)cc1` [Benzoyl-(4-bromo-phenyl)-thiocarbamic acid O-[2-(1,3-dioxo-1,3-dihydro-isoindol-2-yl)-ethyl] ester], a half-maximal effect (EC50) was put at 0.035 µM. In turn, `O=C(c1ccccc1)N(C(=S)OCCOc1ccccc1)c1ccc(F)cc1` [Benzoyl-(4-fluoro-phenyl)-thiocarbamic acid O-(2-phenoxy-ethyl) ester] came in with a concentration giving a half-maximal response (EC50) of 4 µM. The compound `O=C(c1ccccc1)N(C(=S)OCCOc1ccccc1)C1CCCCC1` [Benzoyl-cyclohexyl-thiocarbamic acid O-(2-phenoxy-ethyl) ester] showed an EC50 of 200 µM. Under `CC(COc1ccccc1)OC(=S)N(C(=O)c1ccccc1)c1ccccc1` (centres undefined) [Benzoyl-phenyl-thiocarbamic acid O-(1-methyl-2-phenoxy-ethyl) ester] stands 1.3 µM; under `O=C(c1ccccc1)N(C(=S)OCCOc1ccccc1)c1ccccc1` [Benzoyl-phenyl-thiocarbamic acid O-(2-phenoxy-ethyl) ester], 8 µM; under `O=C(c1ccccc1)N(C(=S)OCCSc1ccccc1)c1ccccc1` [Benzoyl-phenyl-thiocarbamic acid O-(2-phenylsulfanyl-ethyl) ester], greater than 44 µM. Under `O=C1c2ccccc2C(=O)N1CCOC(=S)N(C(=O)c1ccccc1)c1ccccc1` [Benzoyl-phenyl-thiocarbamic acid O-[2-(1,3-dioxo-1,3-dihydro-isoindol-2-yl)-ethyl] ester] stands 0.4 µM. With `O=C(c1ccccc1)N(C(=S)OCc1ccco1)c1ccccc1` [Benzoyl-phenyl-thiocarbamic acid O-furan-2-ylmethyl ester] the figure was greater than 38.3 µM; with `O=C(c1ccccc1)N(C(=S)OCCc1ccccc1)c1ccccc1` [Benzoyl-phenyl-thiocarbamic acid O-phenethyl ester], 4.2 µM. `S=C(NCCc1ccccn1)Nc1ccc(Br)cn1` [N-(2-(2-Pyridylethyl))-N -(2-(5-bromopyridyl))thiourea] gave an EC50 of 0.02 µM. With `O=C1c2ccccc2C(=O)N1CCOC(=S)N(C(=O)c1ccc(Cl)cc1)c1ccc(Cl)cc1` [O-2-(1,3-dioxoisoindolin-2-yl)ethyl 4-chlorobenzoyl(4-chlorophenyl)carbamothioate] the figure was 0.025 µM; with `O=C1c2ccccc2C(=O)N1CCOC(=S)N(C(=O)c1ccco1)c1ccc(Cl)cc1` [O-2-(1,3-dioxoisoindolin-2-yl)ethyl 4-chlorophenyl(furan-2-carbonyl)carbamothioate], 0.007 µM; with `O=C1c2ccccc2C(=O)N1CCOC(=S)N(C(=O)c1ccccc1)c1ccc(Cl)cc1` [O-2-(1,3-dioxoisoindolin-2-yl)ethyl benzoyl(4-chlorophenyl)carbamothioate], 0.1 µM. For `CC(COc1ccccc1)OC(=S)N(C(=O)Oc1ccccc1)c1ccccc1` (centres undefined) [O-(1-methyl-2-phenoxyethyl) O-phenyl phenylimidothiodicarbonate], the EC50 was greater than 200 µM. Take `CCCOC(=O)N(C(=S)OC(C)COc1ccccc1)c1ccccc1` (centres undefined) [O-(1-methyl-2-phenoxyethyl) O-propyl phenylimidothiodicarbonate]: the response was half-maximal at 131 µM (EC50). `CCCCOC(=O)N(C(=S)OC(C)COc1ccccc1)c1ccccc1` (centres undefined) [O-butyl O-(1-methyl-2-phenoxyethyl) phenylimidothiodicarbonate] gave an EC50 of 47 µM. Under `COc1cc(C(=O)N(C(=S)OCCOc2ccccc2)c2ccccc2)cc(OC)c1OC` [Phenyl-(3,4,5-trimethoxy-benzoyl)-thiocarbamic acid O-(2-phenoxy-ethyl) ester] stands 9.6 µM. For the compound `O=C(/C=C/c1ccccc1)N(C(=S)OCCOc1ccccc1)c1ccccc1` [Phenyl-(3-phenyl-acryloyl)-thiocarbamic acid O-(2-phenoxy-ethyl) ester], a half-maximal effect (EC50) was put at 7.7 µM.

Compound `O=C(/C=C/c1ccccc1)N(C(=S)OCCc1ccccc1)c1ccccc1` [Phenyl-(3-phenyl-acryloyl)-thiocarbamic acid O-phenethyl ester] showed a concentration giving a half-maximal response (EC50) of 4.5 µM.

`CC(COc1ccccc1)OC(=S)N(C(=O)c1cccs1)c1ccccc1` (centres undefined) [Phenyl-(thiophene-2-carbonyl)-thiocarbamic acid O-(1-methyl-2-phenoxy-ethyl) ester]: the EC50 is 2 µM. With `O=C(c1cccs1)N(C(=S)OCCOc1ccccc1)c1ccccc1` [Phenyl-(thiophene-2-carbonyl)-thiocarbamic acid O-(2-phenoxy-ethyl) ester] the figure was 8.6 µM.

The values above are taken from BindingDB's records for doi:10.1021/jm0209984 (Universit&#224, 2003).
